Assay results published in publication PMC9856044 (Biomolecules, 2023).

Assays:
[1] = molecular target: Tel22 (5′-AGGG(TTAGGG)3–3′) G-quadruplex; assay: Fluorimetric titration with Tel22 in sodium cacodylate buffer (Na+ solution); format: binding, human; conditions: Tel22, sodium cacodylate buffer, pH = 7.0, I = 0.1 mol dm^−3; SPECFIT fit of fluorescence titration
Experimental: (§1) Materials. Polynucleotides were purchased as noted: poly A–poly U, calf thymus ctDNA, poly(dAdT)2 and poly(dGdC)2 (Sigma-Aldrich, St. Louis, MI, USA). Polynucleotides were dissolved in Na-cacodylate buffer, I = 0.05 mol dm^−3, pH = 7.0. The calf thymus ctDNA was additionally sonicated and filtered through a […]. Polynucleotide concentration was determined spectroscopically as the concentration of phosphates. Spectrophotometric titrations were performed at pH = 7.0 (I = 0.05 mol dm^−3, sodium cacodylate buffer) by adding aliquots of polynucleotide solution into the solution of the studied compound for fluorimetric experiments and CD experiments were done by adding aliquots of the compound stock solution into the solution of a polynucleotide. In fluorimetric experiments, an excitation wavelength of λexc = 425, 431, 423, 427, 406 and 407 nm, respectively, was used to avoid the inner filter effect caused due to increasing absorbance of the polynucleotide. Emission was collected in the range λem = 400–700 nm. Values for Ka obtained by processing titration data using the Scatchard equation [27], all have satisfactory correlation coefficients (≥0.98).
(§2) Thermal melting curves for DNA, RNA and their complexes with studied compounds were determined as previously described by following the absorption change at 260 nm as a function of temperature. The absorbance of the ligands was subtracted from every curve and the absorbance scale was normalized. Tm values are the midpoints of the transition curves determined from the maximum of the first derivative and checked graphically by the tangent method. The ∆Tm values were calculated by subtracting Tm of the free nucleic acid from Tm of the complex. Every ∆Tm value here reported was the average of two measurements. The error in ∆Tm is ±0.5 °C. 5′-AGGG(TTAGGG)3–3′(Tel22) was obtained from IDT (Integrated DNA Technologies, Coralville, IA, USA). Tel22 was dissolved in 0.1 M either in sodium cacodylate or potassium phosphate buffer. The starting Tel22 oligonucleotide solution was first heated up to 95 °C for 10 min, then slowly cooled to 10 °C at the cooling rate of 1 °C/min to allow DNA oligonucleotide to adopt a G-quadruplex structure. The G-quadruplex structure was confirmed by thermal melting and CD spectra. The concentration of G quadruplex was expressed in terms of oligonucleotide structure. In fluorimetric titrations, aliquots of Tel 22 solution were added to the solution of ligands (c ~ 2 × 10^−7 M, in SI).
(§3) Binding constants (log Ka) and stoichiometry of complexes were calculated from the fluorimetric data using non-linear least-square program SPECFIT [46], in the concentration range that corresponded to 20–80% complex formed.

[2] = test system: HeLa cells; assay: MTT cytotoxicity assay, HeLa; format: cell-based; conditions: Homo sapiens, 72 h incubation, ± SD
Experimental: (§4) Human cervical carcinoma HeLa (GIBCO BRL, Invitrogen, Waltham, MA, USA), human melanoma MDA-MB-435S and human ovarian adenocarcinoma SK-OV-3 (ATCC-LGC Standards GmbH, Wesel, Germany) cell lines were purchased from indicated cell culture banks. Normal human skin fibroblasts were isolated from the upper arm of a donor at the Neurochemical Laboratory, Department of Chemistry and Biochemistry, School of Medicine, University of Zagreb. HeLa, MDA-MB-435S and fibroblasts were grown in Dulbecco’s Modified Eagle’s Medium (DMEM; Sigma-Aldrich, St. Louis, MI, USA) while the SK-OV-3 cell line was grown in McCoy’s 5A medium (Capricorn Scientific, Ebsdorfergrund, Germany). All media were supplemented with 10% fetal bovine serum (FBS; Sigma-Aldrich) and 50 I.U./mL penicillin and 50 μg/mL streptomycin. Cells were cultured in a humidified atmosphere of 5% CO2 at 37 °C and were sub-cultured every 3–4 days. HeLa, MDA-MB-435S, SK-OV-3 cells and fibroblasts were seeded in 96 well plates. Twenty-four hours later the cells were treated, in quadruplicate, with different concentrations of compounds (dissolved in DMSO, kept at 4 °C and protected from light). Following 72 h of incubation at 37 °C, the medium was aspired and modified 3-(4,5-dimethylthiazol-2-yl)-2,5-diphenyltetrazolium bromide (MTT) assay was used to determine the cytotoxic effect of the tested compounds. Three hours later, formazan crystals were dissolved in DMSO (0.17 mL/well), the plates were mechanically agitated for 20 min and the optical density at 600 nm was determined on a microtiter plate reader (Awareness Technology Inc., Palm City, FL, USA). The experiments were repeated three times.

[3] = test system: Tel22 (DNA, G4) AGGGTTAGGGTTAGGGTTAGGG; assay: fluorescence titration; conditions: K+ (potassium phosphate, I = 0.1 M); pH 7.0, 25 °C; emission increase, no constant fitted
[4] = test system: Tel22 G-quadruplex; assay: Thermal melting of Tel22 in sodium cacodylate buffer; format: binding, human; conditions: Tel22, r = 1.0, sodium cacodylate buffer, pH = 7.0, I = 0.1 mol dm^−3; error ± 0.5 °C
Experimental: as §2

[5] = Solubility and aggregation (UV/Vis characterization); format: physicochemical; conditions: sodium cacodylate buffer, I = 0.05 mol dm^−3, pH = 7.0; UV/Vis
Experimental: The UV/vis spectra were recorded on a Varian Cary 100 Bio spectrophotometer (Agilent, Santa Clara, CA, USA), CD spectra on JASCO J815 spectrophotometer (ABL&E Handels GmbH, Wien, Austria) and fluorescence spectra on a Varian Cary Eclipse spectrophotometer (Agilent, Santa Clara, CA, USA) at 25 °C using appropriate 1 cm path quartz cuvettes.
Studied compounds, 1–6 were soluble (c = 8 × 10^−4 mol dm^−3) in DMSO. […] Therefore, the stock solution of 2 was prepared fresh before use. The experiments were done in aqueous buffer (sodium cacodylate buffer, I = 0.05 mol dm^−3; pH = 7.0).
However, the shape of UV/Vis spectra of cyanine 2 changed with increasing concentration (calibration experiment in Figure S2 in SI). In addition to the dominant maximum at 432 nm (which most likely corresponds to the monomer form of the dye), the absorption band at 413 nm becomes more intense (Figure S2 in SI). Presumably, it corresponds to the aggregated form (H-aggregate). Based on the existence of an absorption band at 432 nm, only the monomer dye form is visible at high temperature (95 °C) (Figure S8b in SI). However, after cooling the solution to 25 °C, an additional band appears at 413 nm, which corresponds to the aggregated dye form.

[6] = test system: Fibroblasts; assay: MTT cytotoxicity assay, normal human skin fibroblasts; format: cell-based; conditions: Fibroblast, 72 h incubation, ± SD
Experimental: as §4

[7] = test system: Tel22 (DNA, G4) AGGGTTAGGGTTAGGGTTAGGG; assay: UV thermal melting, 260 nm; conditions: Na+ (sodium cacodylate, I = 0.1 M); pH 7.0; Tel22 2 µM, r = 1.0 (compound 2 µM)
[8] = test system: Tel22 (DNA, G4) AGGGTTAGGGTTAGGGTTAGGG; assay: fluorescence titration (SPECFIT); conditions: Na+ (sodium cacodylate, I = 0.1 M); pH 7.0, 25 °C; site 1 of 2
[9] = test system: SK-OV-3 cells; assay: MTT cytotoxicity assay, SK-OV-3; format: cell-based; conditions: Homo sapiens, SK-OV-3, 72 h incubation, ± SD
Experimental: as §4

[10] = test system: MDA-MB-435S cells; assay: MTT cytotoxicity assay, MDA-MB-435S; format: cell-based; conditions: Homo sapiens, 72 h incubation, ± SD
Experimental: as §4

[11] = test system: ds-DNA and ds-RNA; assay: Thermal melting of ds-DNA and ds-RNA; format: binding; conditions: r [compound]/[nucleotide phosphate] = 0.1
Experimental: as §2
Binding abilities of 1–6 compounds were further explored by thermal melting experiments. […]

[12] = molecular target: Tel22 (5′-AGGG(TTAGGG)3–3′) G-quadruplex; assay: Fluorimetric titration with Tel22 in potassium phosphate buffer (K+ solution); format: binding, human; conditions: Tel22, K+ solution; no accurate fit possible
Experimental: as §1, §2, §3

[13] = test system: Tel22 G-quadruplex; assay: Thermal melting of Tel22 in potassium phosphate buffer; format: binding, human; conditions: Tel22, r = 1.0, potassium phosphate buffer, pH = 7.0, I = 0.1 mol dm^−3; error ±0.5 °C
Experimental: as §2

SMILES | logKa1 (L + G ⇆ LG) [1] | logKa2 (LG + G ⇆ LG2) [1] | IC50 [2] | binding [3] | ∆Tm [4] | Aggregation in aqueous buffer [5] | IC50 [6] | melting point | ∆Tm [7] | logKa1 [8] | IC50 [9] | IC50 [10] | Effect on DNA/RNA thermal stability [11] | log Ka (indicated by steeper slope of titration curves) [12] | ∆Tm [13]
C[n+]1c(C=C2Sc3ccccc3N2CCCS(=O)(=O)[O-])[se]c2ccccc21 [Compound 1, 3-(2-((3-methylbenzo[d][1,3]selenazol-3-ium-2-yl)methylene)benzo[d]thiazol-3(2H)-yl)propane-1-sulfonate] | 6.93 ± 0.25 | 5.69 ± 0.23 | 31.9 ± 1.14 µM | yes | 0 °C | do not form aggregates | > 40 µM | > 300 °C | 0 °C | 6.93 ± 0.25 | 32.8 ± 1.09 µM | 18.5 ± 1.23 µM | – | – | –
C[n+]1c(/C=C2\Sc3ccccc3N2CCS)[se]c2ccccc21 [Compound 6, 2-((3-(2-mercaptoethyl)benzo[d]thiazol-2(3H)-ylidene)methyl)-3-methylbenzo[d][1,3]selenazol-3-ium methosulphate] | – | – | 30.7 ± 4.07 µM | – | 2.0 °C | significantly aggregate | > 40 µM | – | – | – | > 40 µM | 32.8 ± 3.76 µM | did not show any impact | ≥ 7 | 6.9 °C
